# Results reported in patent US4886791A, “Soluble derivatives of silybin, a method of preparing them, and pharmaceutical compositions containing them” (priority 1987, dated 1989).
# Structures can show the parent of a compound that is named as a salt. Where two headings read alike, the source gives them in different places.
# Key:
# [1] = system: liver poisoning by praseodymium; assay: Antihepatotoxic activity, praseodymium test on the rat (i.v. administration); assay type: in vivo
# Description: (§1) In order to test its pharmacological activity, compound (Ia) has been administered intravenously and orally in liver poisoning tests, such as the praseodymium poisoning test on the rat and the phalloidine poisoning test on the mouse, both tests being widely described in the literature for use in studying the antihepatotoxic effect of silymarin and silybin (Vogel, in "Studies in Organic Chemistry, Vol. 11, Flavonoids and Bioflavonoids, page 461, Elsevier 1982).
# Silybin 11-phosphate was intravenously administered one hour before the praseodymium (10 mg/kg i.v.).
# [2] = system: poisoning with phalloidine; assay: Antihepatotoxic activity, mouse poisoned with phalloidine (i.v. administration); assay type: in vivo; conditions: for Death Rate: 10 animals/group
# Description: as §1
# Silybin dihemisuccinate, when tested at a dose equal to 1/13 of the LD50 i.v. in the mouse, protected only 60% of the mice from death by phalloidine (Table 4).
# [3] = system: liver poisoning by praseodymium; assay: Antihepatotoxic activity, praseodymium test on the rat (oral administration); assay type: in vivo
# Description: as §1
# [4] = system: mice subjected to hypobaric anoxia; assay: Hypobaric anoxia: protective effect on survival time of mice subjected to hypoxia (i.p.); assay type: in vivo, mouse; conditions: for ED50: Mus musculus, ip
# Description: Table 5 gives data showing the effect of compound Ia on the survival time of mice subjected to hypobaric anoxia. In this test (M. Nakanishi et al., Life Sciences, 13, 467, 1973), compound Ia was intraperitoneally injected half an hour before the anoxia.
# [5] = Anti-radical activity in vitro, free radical scavenging (DPPH method); conditions: for IC50: DPPH method
# Protocol: The anti-radical activity of compound Ia was measured "in vitro" by testing the disappearance of the free 1,1-diphenyl-2-picrylhydrazyl (DPPH) radical (J. Pincemail et al., Stud. Org. Chem. 23, 423, 1985).
# [6] = Acute toxicity, mouse; conditions: in vivo, iv
# [7] = Acute toxicity, rat; conditions: in vivo, iv
# [8] = system: Mouse; conditions: i.v., A. Desplaces et al., 1975; cited from earlier work
# [9] = system: Rat; conditions: i.v., A. Desplaces et al., 1975; cited from earlier work
# [10] = rat, simultaneously with praseodymium
# [11] = corresponds to mg/kg silybin, read-out: Survival Time ED50, corresponding silybin dose
# [12] = half an hour before the anoxia, read-out: Survival Time ED50 (confidence limits p = 0.95)
# [13] = corresponds to μM silybin, read-out: IC50, corresponding silybin concentration
# [14] = read-out: IC50 (confidence limits p = 0.95)
smiles,measurement,setting,value
"COc1cc(C2Oc3cc(C4Oc5cc(O)cc(O)c5C(=O)C4O)ccc3OC2COP(=O)(O)O)ccc1O (stereo not drawn) [Silybin 11-phosphate (Ia), Silybin 11-phosphate]",Pharmacological activity compared with silybin dihemisuccinate,"[1]; intravenous, liver poisoning tests (praseodymium rat, phalloidine mouse)",much higher pharmacological activity than silybin dihemisuccinate
same,"ALAT, percentage variation relative to the praseodymium group","[1]; rat, i.v., 6.32 mg/kg",-71%
same,"ASAT, percentage variation relative to the praseodymium group","[1]; rat, i.v., 6.32 mg/kg",-54%
same,"Liver Wt, m ± s.e.","[1]; rat, i.v., 6.32 mg/kg",12.6 ± 0.5 g
same,"Liver Wt, percentage variation relative to the praseodymium group","[1]; rat, i.v., 6.32 mg/kg",-10%
same,"Liver triglycerides, m ± s.e.","[1]; rat, i.v., 6.32 mg/kg",4792.4 ± 1068.8
same,"Liver triglycerides, percentage variation relative to the praseodymium group","[1]; rat, i.v., 6.32 mg/kg",-41%
same,"Serum enzymes ALAT, m ± s.e.","[1]; rat, i.v., 6.32 mg/kg",495.0 ± 244.6 U/L
same,"Serum enzymes ASAT, m ± s.e.","[1]; rat, i.v., 6.32 mg/kg, 1 h before praseodymium 10 mg/kg i.v.",877.0 ± 420.5 U/L
same,"ALAT, percentage variation relative to the praseodymium group","[1]; rat, i.v., 15.8 mg/kg",-97%
same,"ASAT, percentage variation relative to the praseodymium group","[1]; rat, i.v., 15.8 mg/kg",-95%
same,"Liver Wt, m ± s.e.","[1]; rat, i.v., 15.8 mg/kg",8.7 ± 0.2 g
same,"Liver Wt, percentage variation relative to the praseodymium group","[1]; rat, i.v., 15.8 mg/kg",-30%
same,"Liver triglycerides, m ± s.e.","[1]; rat, i.v., 15.8 mg/kg",672.7 ± 100.5
same,"Liver triglycerides, percentage variation relative to the praseodymium group","[1]; rat, i.v., 15.8 mg/kg",-92%
same,"Serum enzymes ALAT, m ± s.e.","[1]; rat, i.v., 15.8 mg/kg",31.3 ± 3.2 U/L
same,"Serum enzymes ASAT, m ± s.e.","[1]; rat, i.v., 15.8 mg/kg",90.9 ± 8.9 U/L
same,Effect on praseodymium-induced increases,"[1]; rat, i.v., dose equal to 1/26 of the LD50",inhibited the increase in activity of the two serum transaminases and the increase in the weight of the liver and the hepatic triglycerides
same,Activity in the praseodymium test,"[1]; rat, i.v., dose of 1/65 of the LD50",Activity was maintained
same,Activity compared with silybin dihemisuccinate in the phalloidine test,[2]; 63 and 126 mg/kg i.v.,markedly superior to silybin dihemisuccinate
same,Percentage of deaths,"[2]; i.v., 15.8 mg/kg",0%
same,Death Rate,"[2]; i.v., 15.8 mg/kg, 1 h before phalloidine 3 mg/kg i.p.",0
same,Protection from death by phalloidine,"[2]; i.v., dose equal to 1/15 of the LD50 i.v.",protected all the mice from death
same,Antihepatotoxic activity compared with silybin,[3],greater than that of silybin
same,"ALAT, percentage variation relative to the praseodymium group","[3]; rat, 315 mg/kg",-78%
same,"ASAT, percentage variation relative to the praseodymium group","[3]; rat, 315 mg/kg",-75%
same,"Serum enzymes ALAT, m ± s.e.","[3]; rat, 315 mg/kg",783.3 ± 304.6 U/L
same,"Serum enzymes ASAT, m ± s.e.","[3]; rat, 315 mg/kg, simultaneously with praseodymium",931.7 ± 299.0 U/L
same,Activity in counteracting the increase in the two serum transaminases compared with silybin,[3]; [10],considerably more active than silybin alone
same,Activity in counteracting the increase in the two serum transaminases compared with silybin dihemisuccinate,[3]; [10],as active as silybin dihemisuccinate
same,Activity in prolonging the survival time,[4],active in prolonging the survival time
same,Activity in prolonging the survival time compared with succinylsilybin,[4],significantly more active than succinylsilybin
same,ED50,[4]; [11],36.3 mg/kg
same,ED50,[4]; [12],45.7 mg/kg
same,IC50,[5]; [13],85 µM
same,IC50,[5]; [14],107 µM
same,Activity in destroying free radicals,"[5]; in vitro, DPPH",significantly active in destroying free radicals
same,Anti-radical activity relative to silybin or succinylsilybin,[5]; more active than either silybin or succinylsilybin,about 3.5 times
"COc1cc(C2Oc3cc(C4Oc5cc(O)cc(O)c5C(=O)C4O)ccc3OC2COP(=O)(O)O)ccc1O (stereo not drawn) [Silybin 11-phosphate (Ia, sodium salt), sodium salt of silybin 11-phosphate]",LD50,[6],235 mg/kg
same,LD50,[7],415 mg/kg
"COc1cc(C2Oc3cc(C4Oc5cc(O)cc(O)c5C(=O)C4OC(=O)CCC(=O)O)ccc3OC2COC(=O)CCC(=O)O)ccc1O (stereo not drawn) [Silybin dihemisuccinate, silybin dihemisuccinate]","ALAT, percentage variation relative to the praseodymium group","[1]; rat, i.v., 7.5 mg/kg",-21%
same,"ASAT, percentage variation relative to the praseodymium group","[1]; rat, i.v., 7.5 mg/kg",-11%
same,"Liver Wt, m ± s.e.","[1]; rat, i.v., 7.5 mg/kg",12.6 ± 0.5 g
same,"Liver Wt, percentage variation relative to the praseodymium group","[1]; rat, i.v., 7.5 mg/kg",-3%
same,"Liver triglycerides, m ± s.e.","[1]; rat, i.v., 7.5 mg/kg",6692.8 ± 738.3
same,"Liver triglycerides, percentage variation relative to the praseodymium group","[1]; rat, i.v., 7.5 mg/kg",-18%
same,"Serum enzymes ALAT, m ± s.e.","[1]; rat, i.v., 7.5 mg/kg",1366. ± 343.1 U/L
same,"Serum enzymes ASAT, m ± s.e.","[1]; rat, i.v., 7.5 mg/kg",1672.0 ± 292.8 U/L
same,"ALAT, percentage variation relative to the praseodymium group","[1]; rat, i.v., 37.5 mg/kg",+64%
same,"ASAT, percentage variation relative to the praseodymium group","[1]; rat, i.v., 37.5 mg/kg",+38%
same,"Liver Wt, m ± s.e.","[1]; rat, i.v., 37.5 mg/kg",12.6 ± 0.4 g
same,"Liver Wt, percentage variation relative to the praseodymium group","[1]; rat, i.v., 37.5 mg/kg",+1%
same,"Liver triglycerides, m ± s.e.","[1]; rat, i.v., 37.5 mg/kg",7083.9 ± 747.5
same,"Liver triglycerides, percentage variation relative to the praseodymium group","[1]; rat, i.v., 37.5 mg/kg",-19%
same,"Serum enzymes ALAT, m ± s.e.","[1]; rat, i.v., 37.5 mg/kg",1988.3 ± 465.3 U/L
same,"Serum enzymes ASAT, m ± s.e.","[1]; rat, i.v., 37.5 mg/kg",2600.0 ± 570.9 U/L
same,"ALAT, percentage variation relative to the praseodymium group","[1]; rat, i.v., 75 mg/kg",-65%
same,"ASAT, percentage variation relative to the praseodymium group","[1]; rat, i.v., 75 mg/kg",-53%
same,"Liver Wt, m ± s.e.","[1]; rat, i.v., 75 mg/kg",12.1 ± 0.5 g
same,"Liver Wt, percentage variation relative to the praseodymium group","[1]; rat, i.v., 75 mg/kg",-1%
same,"Liver triglycerides, m ± s.e.","[1]; rat, i.v., 75 mg/kg",9221.0 ± 910.4
same,"Liver triglycerides, percentage variation relative to the praseodymium group","[1]; rat, i.v., 75 mg/kg",+11%
same,"Serum enzymes ALAT, m ± s.e.","[1]; rat, i.v., 75 mg/kg",422.9 ± 85.6 U/L
same,"Serum enzymes ASAT, m ± s.e.","[1]; rat, i.v., 75 mg/kg",887.0 ± 63.1 U/L
same,Activity in the praseodymium test,"[1]; rat, i.v., lower doses comparable with those of compound (Ia)",no activity
same,Dose for preventing praseodymium poisoning,"[1]; rat, i.v., LD50 reported in the literature",1/12
same,Percentage of deaths,"[2]; i.v., 75.0 mg/kg",40%
same,Death Rate,"[2]; i.v., 75.0 mg/kg",4
same,Mice protected from death by phalloidine,"[2]; i.v., dose equal to 1/13 of the LD50 i.v.",60%
same,"ALAT, percentage variation relative to the praseodymium group","[3]; rat, 375 mg/kg",-75%
same,"ASAT, percentage variation relative to the praseodymium group","[3]; rat, 375 mg/kg",-70%
same,"Serum enzymes ALAT, m ± s.e.","[3]; rat, 375 mg/kg",886.7 ± 395.1 U/L
same,"Serum enzymes ASAT, m ± s.e.","[3]; rat, 375 mg/kg",1118.3 ± 512.0 U/L
same,ED50,[4]; [11],97.3 mg/kg
same,ED50,[4]; [12],108 mg/kg
same,IC50,[5]; [13],322 µM
same,IC50,[5]; [14],565 µM
same,LD50,[8],970(1) (931-1010) mg/kg
same,LD50,[9],920(1) (906-940) mg/kg
"COc1cc(C2Oc3cc([C@H]4Oc5cc(O)cc(O)c5C(=O)[C@@H]4O)ccc3OC2CO)ccc1O (stereo partly drawn) [Silybin, silybin]","ALAT, percentage variation relative to the praseodymium group","[3]; rat, 250 mg/kg",+1%
same,"ASAT, percentage variation relative to the praseodymium group","[3]; rat, 250 mg/kg",-2%
same,"Serum enzymes ALAT, m ± s.e.","[3]; rat, 250 mg/kg",3620 ± 795.8 U/L
same,"Serum enzymes ASAT, m ± s.e.","[3]; rat, 250 mg/kg",3680.2 ± 885.6 U/L
same,IC50,[5]; [14],327 µM
